Measured values published in patent US20230321179A1, “N-ACYL AMINO ACID PRODUCTS AND USES” (THE REGENTS OF THE UNIVERSITY OF MICHIGAN, priority 2020, published 2023).

How the values were obtained:
[1] = tested on: C57BL/6J mice fed NASH diet; assay: Treatment of NASH in mice with I.P. N-oleoyl leucine; type: in vivo; conditions: 10 mg/kg/d I.P.
Protocol: C57BL/6J mice were fed a standard diet (SD) or non-alcoholic steatohepatitis (NASH) diet for 16 weeks. After NASH confirmation, mice were randomized to receive 10 mg/kg/d (I.P.) N-oleoyl leucine (C18:1-Leu) or equivalent amounts of oleic acid (C18:1) or vehicle (EtOH) for an additional 6 weeks on the NASH diet. Control mice were fed the SD and administered vehicle.

HepG2 cells [2] = assay: Seahorse oxygen consumption rate and dependency on FAO; type: cell-based; conditions: 10 µM acute stimulation, increase attenuated by etomoxir 6 µM
Protocol: HepG2 cells were obtained from the American Type Culture Collection (ATCC) and cultured at 37° C. and 5% CO2 in Dulbecco’s Modified Eagle Medium (DMEM, Gibco) supplemented with 10% fetal bovine serum (FBS, Sigma-Aldrich) and 1% Penicillin-Streptomycin (Pen-Strep, Gibco). Oxygen consumption rate (OCR) and dependency on FAO were assessed using a Seahorse XFe96 Analyzer (Agilent). HepG2 cells were seeded at 2.5x10^4 cells/well in XF96 cell culture microplates (Agilent). The next day, XFe96 sensor cartridges were hydrated in accordance with the manufacturer’s instructions. Cells were treated (port 1) with N-acyl amino acids (10 µM) or vehicle (EtOH), Etomoxir (Agilent, 6 µM, port 2) and finally with rotenone+antimycin A (R/A, Agilent, port 3).

[3] = tested on: Apolipoprotein E-deficient (Apoe-/-) mice; assay: Treatment of atherosclerosis in Western diet-fed mice with I.P. N-oleoyl leucine; type: in vivo; conditions: 7.5 mg/kg/d I.P., 4 weeks
Protocol: Apolipoprotein E-deficient (Apoe-′-) mice were fed a Western diet (WD) for 8 weeks. Mice were randomized to receive 7.5 mg/kg/d (I.P.) N-oleoyl leucine (C18:1-Leu) or equivalent amounts of oleic acid (C18:1) for an additional 4 weeks on the WD (n=10).

PPARα = target: T1, PPARα (Homo sapiens, UniProt Q07869); assay: PPREx3-TK-luciferase PPARα reporter assay in COS-1 cells; type: cell-based; conditions: 24 h
T1 construct: expressed in transfected cells; host or cells: COS-1
T1 sequence (Q07869 1-468): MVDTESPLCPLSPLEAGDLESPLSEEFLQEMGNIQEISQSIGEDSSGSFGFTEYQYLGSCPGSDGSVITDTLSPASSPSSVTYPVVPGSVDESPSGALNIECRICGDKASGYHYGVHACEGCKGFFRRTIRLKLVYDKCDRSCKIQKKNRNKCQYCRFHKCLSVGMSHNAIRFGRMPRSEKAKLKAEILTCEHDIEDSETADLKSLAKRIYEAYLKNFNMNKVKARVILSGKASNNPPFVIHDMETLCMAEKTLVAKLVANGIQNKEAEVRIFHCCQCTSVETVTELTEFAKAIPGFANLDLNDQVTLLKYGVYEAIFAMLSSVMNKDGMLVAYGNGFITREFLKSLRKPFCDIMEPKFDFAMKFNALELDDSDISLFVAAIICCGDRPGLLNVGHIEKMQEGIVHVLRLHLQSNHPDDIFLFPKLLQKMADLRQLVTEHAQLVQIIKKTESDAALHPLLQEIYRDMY
Protocol: COS-1 and HepG2 cells were obtained from the American Type Culture Collection (ATCC) and cultured at 37° C. and 5% CO2 in Dulbecco’s Modified Eagle Medium (DMEM, Gibco) supplemented with 10% fetal bovine serum (FBS, Sigma-Aldrich) and 1% Penicillin-Streptomycin (Pen-Strep, Gibco). For luciferase assays, COS-1 cells were seeded in 96-well plates. At 60-70% confluence, transfection was performed using Lipofectamine 3000 (Invitrogen) with PPREx3-TK-luciferase, PPARα and Renilla constructs at 80 ng, 10 ng and 10 ng, respectively. 24 h post-transfection, cells were serum-starved and treated with 10 µM of the PPARα activator WY-14643 (Cayman Chemicals, 70730), 1 mM of glycine or tripepetide glycine-glycine-leucine or 10 µM of N-acyl amino acids for 24 h (Cayman Chemicals, C20:4-Gly 90051, C18:1-Leu 20064). Luciferase activity was assessed using the Dual-Luciferase Reporter Assay System (Promega) and normalized by Renilla.

HepG2 cells [4] = assay: TG biosynthesis and hydrolysis by [3H]-acetate incorporation; type: cell-based; conditions: 10 µM; for rate of TG biosynthesis: 3 h [3H]-acetate; for rate of TG hydrolysis: additional 3 h after [3H]-acetate withdrawal
Protocol: For the TG biosynthesis and hydrolysis assays, HepG2 cells were seeded in 12-well plates. At 60-70% confluence, cells were treated with N-acyl amino acids (10 µM) or vehicle (EtOH) in serum-free medium supplemented with 0.1% BSA and stimulated for 3 h at 37° C. with [3H]-acetate (3.3 µCi/ml, ART 0202, American Radiolabeled Chemicals) to assess the rate TG biosynthesis. In some wells, the cells were washed twice with PBS ([3H]-acetate withdrawal) and incubated for additional 3 h with N-acyl amino acids (10 µM) or vehicle (EtOH) in serum-free medium supplemented with 0.1% BSA to assess the rate TG hydrolysis. At the end of the above incubation periods, cells were washed with twice with PBS. Cellular lipids were extracted using hexane (≥99%, Sigma-Aldrich 32293) and isopropanol (≥99.5%, Fisher Scientific A426-4) at a 3:2 ratio (v:v), and the hexane phase was left to evaporate for 48 h. Next, lipids were separated by thin layer chromatography (TLC) on silica gel plates (60 F254, M1057150001, Fisher Scientific) and developed in hexane / ether (≥99.9%, 309966, Sigma-Alrich) / acetic acid (≥99.7%, A38-212, Fisher Scientific) at a 130:30:1.5 ratio (v:v:v). TG spots were visualized by iodine vapor (using an appropriate standard for identification) and [3H]-labels were counted by a Tri-Carb 2810TR liquid scintillation analyzer (PerkinElmer). Data were normalized to protein levels and presented as count per minutes (CPM)/mg cell protein.

[5] = tested on: C57BL/6J mice fed NASH diet; assay: NASH diet mouse model, oral treatment with tripeptide glycine-glycine-leucine, glycine or leucine; type: in vivo
Protocol: To explore the therapeutic potential of […] against NASH, an experimental approach to model advanced NAFLD was used. As described, C57BL/6J mice were fed a high-fat, high-fructose and high-cholesterol diet (NASH diet) for 12 weeks. After confirming NASH, the mice were randomized to receive orally […] at 0.125 or 0.5 mg/g/day, equivalent amounts of leucine, glycine or H2O for 12 additional weeks on NASH diet. Mice fed low-fat control diet (CD) and administered H2O served as control. Animal procedures were approved (PRO00008239) by the Institutional Animal Care & Use Committee of the University of Michigan (U-M) and performed in accordance with the institutional guidelines. Seven weeks-old male C57BL/were from Jackson Laboratories. After one week of acclimation, mice were fed ad libitum either low-fat control diet (CD, Research Diets D17072805, 10% fat) or high-fat, high-fructose and high-cholesterol diet (NASH diet, Research Diets D17010103). After confirming NASH, the mice were randomized to receive orally […] (Beijing SL Pharmaceutical) at 0.125 or 0.5 mg/g/day, equivalent amounts of leucine (0.17 mg/g/day, Sigma-AldrichL8912), glycine (0.33 mg/g/day, Sigma-Aldrich G5417) or H2O for 12 additional weeks on NASH diet. All histological procedures were performed by the In Vivo Animal Core (IVAC) Histology Laboratory at the U-M. Technicians were blinded to experimental groups. Formalin-fixed tissues were processed through graded alcohols and cleared with xylene followed by infiltration with molten paraffin using an automated VIP5 or VIP6 tissue processor (TissueTek, Sakura-Americas). Using a Histostar Embedding Station (ThermoFisher Scientific), tissues were then sectioned on a […] rotary microtome (ThermoFisher Scientific) at 4 μm thickness and mounted on glass slides. Slides were stained for hematoxylin and eosin (H&E, ThermoFisher Scientific). For Sirius Red staining, slides were treated with 0.2 phosphomolybdic acid for 3 min and transferred to 0.1% Sirius Red saturated in picric acid (Rowley Biochemical Inc.) for 90 min, then transferred to 0.01N hydrochloric acid for 3 min. Frozen section processing was used for Oil Red O staining. Formalin-fixed liver samples were cryoprotected in 20% sucrose at 4° C. overnight, blotted, then liquid nitrogen-snap frozen in OCT compound (Tissue-Tek, Cat #4583) and stored at -80° C. until ready for cryosectioning. Prior to sectioning, frozen blocks were brought up to about -20° C., then sectioned at 5 μm on a Cryotome SME (Thermo-Shandon, Cat# 77200227). Slides were stored at -80° C. until stained. Prior to staining, liver slides were thawed to room temperature for 30 min. Slides were post-fixed in 10% Neutral Buffered Formalin for 20 min, rinsed in DDW, followed by rinsing in 60% isopropanol before being placed in working Oil Red O-isopropanol stain (Rowley Biochemical Inc., H-503-1B) for 5 min. Slides were then rinsed in 60% isopropanol followed by three changes of DDW. Then, slides were nuclear counterstained in Harris Hematoxylin and mounted in Aqua-Mount (Lerner Laboratories, Cat# 13800) aqueous mounting media. Immunohistochemical staining was performed on a […] automated immunohistochemical stainer (Biocare Medical) with blocking for endogenous peroxidases and non-specific binding, followed by detection using a horseradish peroxidase biotin-free polymer based commercial detection system, disclosure with diaminobenzidine chromogen, and nuclear counterstaining with hematoxylin. Specific to F4/80, (Bio-Rad ABD Serotec, Cat# MCA497), the rat monoclonal primary antibody (clone CI:A3-1) was diluted to 1:400 in DaVinci Diluent (Biocare Medical, Cat# PD900) and incubated for 60 min followed by detection using Rat-on-Mouse HRP-Polymer, (Biocare Medical, Cat# RT517) 2-step probe-polymer incubation for 10 and 30 min respectively. H&E staining was used to score NAFLD activity score (NAS). Steatosis was scored from 0-3 (0: <5% steatosis; 1: 5-33%; 2: 34-66%; 3: >67%). […]

[6] = NASH diet, oral treatment 12 weeks
[7] = NASH diet, oral treatment 12 weeks, endpoint

## CCCCCCCC/C=C\CCCCCCCC(=O)N[C@@H](CC(C)C)C(=O)O [N-oleoyl leucine]
[1]; 6 weeks, NASH diet
  body weight: lowers
[1]; 6 weeks, liver weight to body weight ratio
  hepatomegaly: significantly lowers
[1]; 6 weeks, ALT, AST, ALP at endpoint
  circulating liver enzymes: lowers
[1]; 6 weeks, F4/80, plasma CCL2, CCL5
  NASH diet-induced hepatic and systemic inflammation: significantly lowers
[1]; 6 weeks, H&E scoring, NAS
  diet-induced NASH: significantly lowers
[1]; 6 weeks, Oil red O histology
  hepatic steatosis: significantly lowers
[1]; 6 weeks, Sirius red fibrosis score
  NASH diet-induced hepatic fibrosis: significantly lowers
[1]; CLAMS: RER, energy expenditure, food intake, total activity
  systemic energy balance in NASH: no significant effect
[1]; NASH diet, NMR body composition
  adiposity: without affecting
HepG2 cells [2]
  oxygen consumption rate (OCR): significantly increased
[3]; Western diet, vs oleic acid
  body weight: no significant effects
  plasma cholesterol: no significant effects
[3]; aortic sinus H&E, vs oleic acid
  atherosclerotic plaque area: significantly lowers
[3]; aortic sinus Mac-2, vs oleic acid
  lesional macrophages: significantly lowers
PPARα; 10 µM
  luciferase activity (PPARα activation), normalized by Renilla: significantly increased
HepG2 cells [4]
  rate of TG biosynthesis: attenuated
  rate of TG hydrolysis: only N-arachidonoyl glycine (C20:4-Gly) significantly accelerated

## CCCCC/C=C\C/C=C\C/C=C\C/C=C\CCCC(=O)NCC(=O)O [N-arachidonoyl glycine]
HepG2 cells [2]
  oxygen consumption rate (OCR): significantly increased
PPARα; 10 µM
  luciferase activity (PPARα activation), normalized by Renilla: significantly increased
HepG2 cells [4]
  rate of TG biosynthesis: attenuated
  rate of TG hydrolysis: significantly accelerated

## NCC(=O)O [glycine]
[5]; LC-MS/MS of liver, chronic treatment
  decrease of hepatic levels of N-oleoyl glycine, N-arachidonoyl glycine and N-oleoyl leucine in NASH: rescued
[5]; [6]
  NASH diet-induced hepatomegaly: significantly reduced
  hepatic fibrosis (Sirius Red staining): lower
  hepatic inflammation (F4/80 macrophage staining): lower
  hepatic steatosis (histological analyses): lower
[5]; [7]
  increase in plasma levels of alanine aminotransferase (ALT): attenuated
  increase in plasma levels of aspartate aminotransferase (AST): attenuated
[5]; RNA-sequencing, liver
  suppression of hepatic expression of PPARα and its target genes in NASH: reversed
PPARα; concentrations of up to 1 mM
  luciferase activity (PPARα activation), normalized by Renilla: neither glycine or tripepetide glycine-glycine-leucine showed a significant effect

## Cc1cccc(Nc2cc(Cl)nc(SCC(=O)O)n2)c1C [WY-14643, reference compound]
PPARα; 10 µM
  luciferase activity (PPARα activation), normalized by Renilla: significantly increased

## CCCCCCCC/C=C\CCCCCCCC(=O)NCC(=O)O [N-oleoyl glycine]
PPARα; 10 µM
  luciferase activity (PPARα activation), normalized by Renilla: significantly increased
